Data as given in the supplement of paper PMC10307832.

Experiments:
Test in all cases: relative viability (nuclei count vs DMSO), 5 days (fraction); higher = more cells survive
[1] = compound: COc1cc(Nc2c(C#N)cnc3cc(OCCCN4CCN(C)CC4)c(OC)cc23)c(Cl)cc1Cl [Bosutinib] + CC1(C)CCC(c2ccc(Cl)cc2)=C(CN2CCN(c3ccc(C(=O)NS(=O)(=O)c4ccc(N[C@H](CCN5CCOCC5)CSc5ccccc5)c(S(=O)(=O)C(F)(F)F)c4)cc3)CC2)C1 [Navitoclax] (partner 0.5 µM)
Procedure, shortened: (§1)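 Relative viability equals treated-well nuclei counts divided by vehicle-well nuclei counts. Counts came from 4× images of lung cancer cell lines grown in 1536-well plates for 5 days after pin-tool dosing on the day after seeding. Dosing used one drug alone or a fixed anchor-drug dose plus five library-drug doses (not always all listed) in √10 steps, and values are medians of duplicate plates.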

[2] = compound: COc1cc(Nc2c(C#N)cnc3cc(OCCCN4CCN(C)CC4)c(OC)cc23)c(Cl)cc1Cl [Bosutinib] + COc1cc2c(Oc3ccc(NC(=O)C4(C(=O)Nc5ccc(F)cc5)CC4)cc3F)ccnc2cc1OCCCN1CCOCC1 [Foretinib] (partner 0.25 µM)
Procedure, shortened: as §1

[3] = compound: COc1cc(Nc2c(C#N)cnc3cc(OCCCN4CCN(C)CC4)c(OC)cc23)c(Cl)cc1Cl [Bosutinib] + COc1cccc2cc(-c3nc([C@H]4CC[C@H](C(=O)O)CC4)n4ncnc(N)c34)[nH]c12 [OSI-027] (partner 0.5 µM)
Procedure, shortened: as §1

[4] = compound: COc1cc(Nc2c(C#N)cnc3cc(OCCCN4CCN(C)CC4)c(OC)cc23)c(Cl)cc1Cl [Bosutinib] + Cc1cc(Nc2cc(N3CCN(C)CC3)nc(Sc3ccc(NC(=O)C4CC4)cc3)n2)n[nH]1 [Tozasertib] (partner 0.1 µM)
Procedure, shortened: as §1

[5] = compound: COc1cc(Nc2c(C#N)cnc3cc(OCCCN4CCN(C)CC4)c(OC)cc23)c(Cl)cc1Cl [Bosutinib] + Nc1nc2[nH]cc(CCc3ccc(C(=O)N[C@@H](CCC(=O)O)C(=O)O)cc3)c2c(=O)[nH]1 [Pemetrexed] (partner 0.2 µM)
Procedure, shortened: as §1

Cell Line | relative viability ([1]; first compound 0.01 µM) | relative viability ([1]; first compound 0.03162 µM) | relative viability ([1]; first compound 0.1 µM) | relative viability ([1]; first compound 1 µM) | relative viability ([2]; first compound 0.01 µM) | relative viability ([2]; first compound 0.03162 µM) | relative viability ([2]; first compound 0.1 µM) | relative viability ([2]; first compound 1 µM) | relative viability ([3]; first compound 0.01 µM) | relative viability ([3]; first compound 0.03162 µM) | relative viability ([3]; first compound 0.1 µM) | relative viability ([3]; first compound 1 µM) | relative viability ([4]; first compound 0.01 µM) | relative viability ([4]; first compound 0.03162 µM) | relative viability ([4]; first compound 0.1 µM) | relative viability ([4]; first compound 1 µM) | relative viability ([5]; first compound 0.01 µM) | relative viability ([5]; first compound 0.03162 µM) | relative viability ([5]; first compound 0.1 µM) | relative viability ([5]; first compound 1 µM)
ChaGo-K-1 | 0.602 | 1.33 | 1.31 | 1.56 | 1 | 0.866 | 0.981 | 0.931 | 0.568 | 0.501 | 0.576 | 0.647 | 0.22 | 0.254 | 0.224 | 0.213 | 0.244 | 0.26 | 0.249 | 0.265
EKVX | 0.882 | 0.929 | 0.914 | 0.807 | 0.723 | 0.82 | 0.693 | 0.469 | 0.79 | 0.764 | 0.654 | 0.55 | 0.373 | 0.379 | 0.355 | 0.236 | 0.403 | 0.406 | 0.381 | 0.361
EMC-BAC-2 | 1.2 | 1.1 | 1.15 | 1.15 | 1.02 | 0.981 | 1.06 | 0.768 | 0.388 | 0.383 | 0.385 | 0.37 | 0.287 | 0.291 | 0.311 | 0.282 | 0.426 | 0.444 | 0.446 | 0.448
EPLC-272H | 1.05 | 1.09 | 1.15 | 1.35 | 0.657 | 0.677 | 0.704 | 0.58 | 0.262 | 0.34 | 0.312 | 0.342 | 0.307 | 0.339 | 0.347 | 0.351 | 0.324 | 0.382 | 0.323 | 0.319
H3255 | 0.669 | 0.574 | 0.485 | 0.218 | 0.835 | 0.885 | 0.969 | 0.79 | 0.558 | 0.653 | 0.642 | 0.412 | 0.696 | 0.645 | 0.719 | 0.326 | 0.555 | 0.596 | 0.621 | 0.446
HARA | 1.16 | 1.1 | 1.12 | 1.19 | 0.869 | 0.872 | 0.878 | 0.646 | 0.497 | 0.512 | 0.503 | 0.344 | 0.119 | 0.149 | 0.104 | 0.125 | 0.237 | 0.27 | 0.244 | 0.264
HCC-15 | 0.707 | 0.715 | 0.741 | 0.689 | 1.07 | 1.05 | 1.04 | 0.874 | 0.736 | 0.622 | 0.648 | 0.734 | 0.474 | 0.418 | 0.361 | 0.328 | 0.227 | 0.244 | 0.226 | 0.221
HCC-44 | 1.03 | 0.926 | 0.969 | 0.849 | – | – | – | – | 0.525 | 0.673 | 0.594 | 0.571 | 1.07 | 1.18 | 1.09 | 0.685 | 0.661 | 0.642 | 0.683 | 0.603
